Measured values published in patent publication US9540299B2, “MTOR-independent activator of TFEB for autophagy enhancement and uses thereof” (Hong Kong Baptist University, priority 2015, dated 2017).

Legend:
wild-type (WT) SNCA = assay: Degradation of HA-tagged wild-type SNCA in inducible PC12 cells; type: cell-based; details: for degradation of SNCA WT: Dox 24 h then 48 h, curcumin 10 μM, analogs 1 μM
Protocol: (§1) Expression and intensity of HA-tagged wild-type (WT) or A53T mutant SNCA in inducible PC12 cells are treated with doxycycline (Dox, 2 μg/ml) for 24 h, and then treated with curcumin (10 μM), A2, B3 and C1 (1 μM) for another 48 h (A, C) in the presence or absence of chloroquine (CQ, 20 μM) and wortmannin (WM, 1 μM) (B, D). The expression of HA-SNCA is determined by western blots and quantified from three independent experiments. Corynoxine B (Cory B, 25 μM) is used as a positive control. Relative intensity is normalized to that of ACTB/β-actin. Data are presented as the mean±SD from three independent experiments. *p<0.05 vs. the control (0.1% DMSO).
(§2) N2a, Hela and Hela cells stably expressing 3×-Flag-TFEB are cultured in DMEM supplemented with 10% FBS. SH-SY5Y cells are cultured in DMEM/F12 supplemented with 10% FBS. For drug treatment, the full medium is replaced by fresh Opti-MEM I and then the compounds (in 0.1% DMSO) are added to the cells and incubated for 12 h. Inducible PC12 cells overexpressing SNCA (WT and A53T) (a kind gift from Prof. David C. Rubinsztein at Cambridge University) are grown in DMEM supplemented with 10% horse serum, 5% FBS, 50 μg/ml G418, and 150 μg/ml hygromycin B at 37° C., 10% CO2. Cells are treated with 2 μg/ml doxycycline (Dox) for 24 h to induce SNCA expression. The full medium is changed to Opti-MEM I containing the testing compounds for another 48 h.
(§3) Cells are lysed on ice in 1× Lysis Buffer (9803, Life Technologies) with complete protease inhibitor mixture (04693124001, Roche Applied Science). Animal tissues are homogenized in nine volumes of ice-cold PBS supplemented with protease inhibitors. Cytosolic and nuclear fractions are isolated using protocols similar to those described previously. Anti-Flag or TFEB antibody is added to the whole cell lysates and Dynabeads® Protein G (10003D, Life Technologies) is used for immunoprecipitation. Proteins are separated by 10-15% SDS-PAGE, transferred, and blotted with the antibodies described. The blots are then incubated with secondary antibodies or the Clean-Blot IP Detection Reagent (21230, Thermo Scientific) at room temperature for 1 h. The protein signals are detected by ECL kit (32106, Pierce) and quantified using ImageJ software.
(§4) Inducible PC12 cells are treated with doxycycline (Dox, 2 μg/ml) for 24 h to induce the expression of HA-tagged wild-type (WT) or A53T mutant SNCA, and then treated with curcumin (10 μM), A2, B3 and C1 (1 μM) for another 48 h (FIGS. 8 A, C) in the presence or absence of chloroquine (CQ, 20 μM) and wortmannin (WM, 1 μM) (FIGS. 8 B, D). The expression of HA-SNCA is determined by western blots and quantified from three independent experiments. Corynoxine B (Cory B, 25 μM) is used as a positive control. […] Corynoxine B (Cory B) is used as a positive control.

A53T mutant SNCA = assay: Degradation of HA-tagged A53T mutant SNCA in inducible PC12 cells; type: cell-based; details: for degradation of SNCA A53T: Dox 24 h then 48 h, curcumin 10 μM, analogs 1 μM
Protocol: as §1, §2, §3, §4

purified His-TFEB = biological target: T1, purified His-TFEB (Homo sapiens, UniProt P19484); assay: Binding of solid-phase compound to purified recombinant His-TFEB; details: 17 μmol compound powder, RIPA buffer, 2 hours at 4° C.; 55 kDa band by TFEB antibody
T1 construct: purchased ORIGENE TP760282
T1 sequence (P19484 1-476): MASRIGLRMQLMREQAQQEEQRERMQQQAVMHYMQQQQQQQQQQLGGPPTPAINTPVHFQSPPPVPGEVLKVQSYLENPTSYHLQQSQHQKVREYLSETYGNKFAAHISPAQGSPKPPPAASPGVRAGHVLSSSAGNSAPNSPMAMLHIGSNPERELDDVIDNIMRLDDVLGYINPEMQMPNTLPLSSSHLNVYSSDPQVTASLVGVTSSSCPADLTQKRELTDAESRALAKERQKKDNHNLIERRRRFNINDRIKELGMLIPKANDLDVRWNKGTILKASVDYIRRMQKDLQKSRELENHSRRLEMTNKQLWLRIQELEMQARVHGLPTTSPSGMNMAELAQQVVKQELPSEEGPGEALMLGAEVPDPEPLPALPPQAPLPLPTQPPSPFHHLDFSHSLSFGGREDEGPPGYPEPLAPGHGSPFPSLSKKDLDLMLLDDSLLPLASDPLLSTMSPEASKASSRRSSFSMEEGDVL
Protocol: Hela cells stably expressing 3×Flag-TFEB are treated with C1 (1 μM) for 12 h. Endogenous MTOR (A) and YWHA (B) are co-immunoprecipitated with Flag-TFEB. The levels of immunoprecipitated MTOR and YWHA are normalized to their corresponding levels in whole cell lysates (WCL). […] However, when MTOR and YWHA coimmunoprecipitated with Flag-TFEB after C1 treatment, interaction of MTOR and YWHA is decreased as compared with control. […] Furthermore, purified His-TFEB (TP760282, ORIGENE) is diluted in RIPA buffer and 17 μmol curcumin (6.3 mg) or C1 (5 mg) powder is added into TFEB solution and incubated for 2 hours at 4° C. with shaking. The supernatant is discarded after centrifuge. The pellet (compounds and the bound protein) is washes 4 times in RIPA buffer and the bound proteins are eluted by adding 2% SDS sampling buffer. The bound proteins are separated on 10% SDS—polyacrylamide gel and visualized by TFEB antibody (Proteintech).

In the case of `O=C(/C=C/c1cccc(C(F)(F)F)c1)/C=C/c1cccc(C(F)(F)F)c1` [A2, 1,5-bis(3-(trifluoromethyl)phenyl)penta-1,4-dien-3-one], the “degradation of SNCA WT” value (wild-type (WT) SNCA; inducible PC12 cells) is reported as “significantly degrade” and the “degradation of SNCA A53T” value (A53T mutant SNCA; inducible PC12 cells) is reported as “significantly degrade”.

In the case of `O=C(/C=C/c1ccc(O)cc1)/C=C/c1ccc(O)cc1` [B3, 1,5-bis(4-hydroxyphenyl)penta-1,4-dien-3-one], the “degradation of SNCA WT” value (wild-type (WT) SNCA; inducible PC12 cells) is reported as “significantly degrade” and the “degradation of SNCA A53T” value (A53T mutant SNCA; inducible PC12 cells) is reported as “significantly degrade”.

`COc1ccccc1/C=C/C(=O)/C=C/c1ccccc1OC` [C1, 1,5-bis(2-methoxyphenyl)penta-1,4-dien-3-one] was tested, and the “activity in degrading SNCA in presence of wortmannin (WM) or CQ” value (wild-type (WT) SNCA; SNCA WT, WM 1 μM, CQ 20 μM, 1 μM compound) was “significantly blocked”, the “degradation of SNCA WT” value (wild-type (WT) SNCA; inducible PC12 cells) was “significantly degrade” and the “SNCA clearance, comparison among compounds” value (wild-type (WT) SNCA; inducible PC12 cells, SNCA WT) was “best effects”. For the same molecule, the “activity in degrading SNCA in presence of wortmannin (WM) or CQ” value (A53T mutant SNCA; SNCA A53T, WM 1 μM, CQ 20 μM, 1 μM compound) was “significantly blocked”, the “degradation of SNCA A53T” value (A53T mutant SNCA; inducible PC12 cells) was “significantly degrade” and the “SNCA clearance, comparison among compounds” value (A53T mutant SNCA; inducible PC12 cells, SNCA A53T) was “best effects”. For the same molecule, the “direct binding to purified TFEB” value (purified His-TFEB) was “can directly bind”.

`COc1cc(/C=C/C(=O)CC(=O)/C=C/c2ccc(O)c(OC)c2)ccc1O` [curcumin, Curcumin, reference compound] was tested, and the “degradation of SNCA WT” value (wild-type (WT) SNCA; inducible PC12 cells) was “no effect”, the “degradation of SNCA A53T” value (A53T mutant SNCA; inducible PC12 cells) was “promotes the degradation” and the “direct binding to purified TFEB” value (purified His-TFEB) was “not”.
